Laboratory results as given in patent US11225459B2, “Substituted bisphenylalkylurea compounds and methods” (TEXAS TECH UNIVERSITY SYSTEM, priority 2017, dated 2022).

Legend:
[1] = molecular target: Dopamine Transporter (DAT) (Homo sapiens, UniProt Q01959); experiment: DAT inhibition (Ki), in vitro; format: binding; settings: FIG. 4
From the text: FIG. 4 depicts a graph showing DAT inhibition (Ki) of compound of the present disclosure designated Formula I (AZ2-57).
In one embodiment, compound of the present disclosure Formula I (AZ2-57) is shown in in vitro studies to show DAT inhibition (see FIG. 4).

H1 receptor = H1 receptor (Homo sapiens, UniProt P35367); experiment: H1 R inhibition (Ki); format: binding; settings: FIG. 5
Sequence of H1 receptor (P35367 whole entry): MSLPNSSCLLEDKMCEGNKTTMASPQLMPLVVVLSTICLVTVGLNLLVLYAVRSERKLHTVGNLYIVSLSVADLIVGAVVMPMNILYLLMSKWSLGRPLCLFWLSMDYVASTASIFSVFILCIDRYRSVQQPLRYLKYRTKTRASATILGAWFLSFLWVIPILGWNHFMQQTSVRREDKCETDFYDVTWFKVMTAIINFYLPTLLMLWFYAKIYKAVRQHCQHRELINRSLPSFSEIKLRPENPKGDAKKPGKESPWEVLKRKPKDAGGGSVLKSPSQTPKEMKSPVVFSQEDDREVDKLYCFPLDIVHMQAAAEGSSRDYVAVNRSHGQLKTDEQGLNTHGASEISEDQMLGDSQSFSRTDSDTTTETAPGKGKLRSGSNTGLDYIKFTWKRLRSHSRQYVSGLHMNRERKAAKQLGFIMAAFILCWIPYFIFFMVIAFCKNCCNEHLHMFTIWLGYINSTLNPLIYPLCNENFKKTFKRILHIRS
From the text: FIG. 5 depicts a graph showing H1 R inhibition (Ki) of compound of the present disclosure designated as Formula I (AZ2-57).

H2 receptor = H2 receptor (Homo sapiens, UniProt P25021); experiment: H2 R inhibition (Ki); format: binding; settings: FIG. 6
Sequence of H2 receptor (P25021 whole entry): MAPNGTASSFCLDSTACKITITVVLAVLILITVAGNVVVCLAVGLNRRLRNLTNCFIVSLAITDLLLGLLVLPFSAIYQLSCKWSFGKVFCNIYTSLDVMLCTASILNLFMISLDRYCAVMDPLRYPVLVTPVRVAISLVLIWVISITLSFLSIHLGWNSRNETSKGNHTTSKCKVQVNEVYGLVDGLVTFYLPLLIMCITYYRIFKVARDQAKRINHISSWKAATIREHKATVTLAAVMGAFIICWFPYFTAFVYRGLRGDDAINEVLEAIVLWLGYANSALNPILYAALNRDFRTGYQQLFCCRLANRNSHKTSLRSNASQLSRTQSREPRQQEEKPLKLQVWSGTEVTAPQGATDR
From the text: FIG. 6 depicts a graph showing H2 R inhibition (Ki) of compound of the present disclosure designated as Formula I (AZ2-57).

HUVEC cells = experiment: Ca2+ release assay (HUVEC cells); format: cell-based; settings: FIG. 7
From the text: FIG. 7 depicts a graph showing Ca2+ release assay (HUVEC cells) of compound of the present disclosure designated as Formula I (AZ2-57).
Unlike many other DAT inhibitors on the market, our compound has very limited interaction with other GPCR receptors, reducing potential CNS-induced toxicity. It is thus an embodiment of the present disclosure to further show effect on microglia-induced immune response (chronic inflammation), dopamine surge in the presence of Formula I (AZ2-57).

Sequence of Dopamine Transporter (DAT) (Q01959 whole entry, species assumed): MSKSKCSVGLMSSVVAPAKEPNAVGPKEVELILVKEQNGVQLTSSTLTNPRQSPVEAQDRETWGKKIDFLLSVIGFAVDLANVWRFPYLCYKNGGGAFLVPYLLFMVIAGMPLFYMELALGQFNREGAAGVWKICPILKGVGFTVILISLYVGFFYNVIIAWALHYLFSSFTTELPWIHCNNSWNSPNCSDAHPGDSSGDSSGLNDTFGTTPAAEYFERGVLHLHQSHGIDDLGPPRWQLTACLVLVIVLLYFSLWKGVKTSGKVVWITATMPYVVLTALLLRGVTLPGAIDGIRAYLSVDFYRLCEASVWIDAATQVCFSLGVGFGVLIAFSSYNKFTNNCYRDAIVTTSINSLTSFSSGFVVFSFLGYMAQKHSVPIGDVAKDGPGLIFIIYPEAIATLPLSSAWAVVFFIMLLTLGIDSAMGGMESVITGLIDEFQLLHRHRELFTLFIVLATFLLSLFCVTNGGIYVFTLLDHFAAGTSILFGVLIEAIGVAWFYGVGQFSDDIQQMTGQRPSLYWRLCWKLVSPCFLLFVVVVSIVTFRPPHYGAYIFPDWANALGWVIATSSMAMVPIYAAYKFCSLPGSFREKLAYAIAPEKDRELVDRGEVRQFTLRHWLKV

Q: What does the source list for `O=C(NCCCCC(c1ccc(F)cc1)c1ccc(F)cc1)Nc1ccc(Cl)cc1` [AZ2-57, 1-(5,5-bis(4-fluorophenyl)pentyl)-3-(4-chlorophenyl)urea]?
A: Ki [1]: 5.2 nM; Ki (H1 receptor): 32 nM; inhibition of H1 receptor (H1 receptor): 65.4%; Ki (H2 receptor): 1750 nM; inhibition of H2 receptor (H2 receptor): 54%; Ca2+ release (HUVEC cells): effectively manipulated
